From patent US11549123B2, “Plant EPSP synthases and methods of use” (PIONEER HI-BRED INTERNATIONAL, INC., priority 2015, dated 2023)

Assays:
[1] = test system: EPSPS with TIPS mutations (T103I and P107S, as in GA21); conditions: Funke et al. 2009; Yu et al. 2015; cited from earlier work
[2] = molecular target: T1, Zea mays EPSPS variant Zm-H6 (868-H6) with H54E (H6-H54E) (Zea mays, UniProt O24566, A1R/A3W/A415G/A71Q/D401G/E301S/E390G/G101A/H53E/I207L/K83R/L97C/T278A/T360S/T440Q/V437R); test: Substrate saturation kinetic analysis with glyphosate, H6-H54E; assay type: biochemical
T1 construct: 868-H6 plus H54E; E. coli BL21(DE3), Ni-NTA purified
T1 sequence (O24566 with tags, fused parts or gaps A1R/A3W/H53E/A71Q/K83R/L97C/G101A/I207L/T278A/E301S/T360S/E390G/D401G/A415G/V437R/T440Q): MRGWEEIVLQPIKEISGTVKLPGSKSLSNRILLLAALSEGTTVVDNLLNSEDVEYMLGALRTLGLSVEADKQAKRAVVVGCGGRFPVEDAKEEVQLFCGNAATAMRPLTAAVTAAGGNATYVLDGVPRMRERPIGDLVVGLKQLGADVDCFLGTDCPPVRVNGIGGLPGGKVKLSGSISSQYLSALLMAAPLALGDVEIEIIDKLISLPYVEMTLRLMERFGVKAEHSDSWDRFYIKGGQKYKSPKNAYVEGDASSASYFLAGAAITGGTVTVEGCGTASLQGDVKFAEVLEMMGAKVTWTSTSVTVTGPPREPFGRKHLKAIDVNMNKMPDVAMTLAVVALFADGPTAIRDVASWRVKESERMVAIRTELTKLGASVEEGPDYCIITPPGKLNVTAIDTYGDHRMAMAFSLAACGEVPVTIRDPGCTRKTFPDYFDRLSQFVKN

[3] = molecular target: Zea mays EPSPS variant WT-FS-D (101S 107L 302S 338S) (Zea mays, UniProt O24566, A100S/A337S/E301S/P106L); test: EPSPS substrate saturation kinetics, WT-FS-D; assay type: biochemical
Procedure: (§1) EPSPS activity was determined by quantifying the phosphate generated from the EPSPS reaction. Release of inorganic phosphate was coupled to reaction with 2-amino-6-mercapto-7-methylpurine ribonucleoside, catalyzed by purine-nucleoside phosphorylase (M R Webb, Proc. Natl. Acad. Sci. 89:4884-4887, 1992). The absorbance change that occurs was monitored at 360 nm, where the extinction is 11,200 M^−1 cm^−1, with a Spectramax plate reader (Molecular Devices). To determine kinetic parameters, the varied substrate was present at seven concentrations (the eighth being the blank, containing no substrate) ranging from 4 to 400 uM and the unvaried substrate present at saturation. […] Reactions were monitored with a Spectramax plate reader. […] KI was then calculated from the following form of the Michaelis-Menten equation for competitive inhibition: KI=KM[I]/(KM app−KM) KM approximates the dissociation constant of the enzyme-substrate complex while kcat is the rate of conversion of substrate to product when the substrate concentration is saturating. kcat/KM is a widely accepted parameter for catalytic efficiency when substrate concentration is low (˜KM). […] The parameter kcat/KM×KI is used to quantify both catalytic efficiency and insensitivity and thus the overall fitness of the enzyme. […]

[4] = molecular target: Zea mays EPSPS variant 208V 313G (Zea mays, UniProt O24566, E312G/I207V); test: EPSPS reaction rate with or without 10 uM glyphosate, 208V 313G; assay type: biochemical; conditions: pH 7; read-out: Reaction rate with 10 μM glyph, % no glyph; further: 50 µM PEP and S3P
[5] = molecular target: Zea mays EPSPS variant 868-H6 (A2R, A4W, A72Q, K84R, L98C, G102A, I208L, T279A, E302S, T361S, E391G, D402G, A416G, V438R, T441Q), SEQ ID NO:5 (Zea mays, UniProt O24566, A1R/A3W/A415G/A71Q/D401G/E301S/E390G/G101A/I207L/K83R/L97C/T278A/T360S/T440Q/V437R); test: EPSPS substrate saturation kinetics, 868-H6; assay type: biochemical
Procedure: as §1

[6] = test system: Glycine max (93Y21) cotyledon hairy roots; test: Hairy root growth of transformed soybean cotyledons on 25 uM glyphosate; assay type: cell-based
[7] = PEP as substrate, glyphosate as inhibitor

Sequence of Zea mays EPSPS variant WT-FS-D (101S 107L 302S 338S) (O24566 entry or part of it A100S/P106L/E301S/A337S): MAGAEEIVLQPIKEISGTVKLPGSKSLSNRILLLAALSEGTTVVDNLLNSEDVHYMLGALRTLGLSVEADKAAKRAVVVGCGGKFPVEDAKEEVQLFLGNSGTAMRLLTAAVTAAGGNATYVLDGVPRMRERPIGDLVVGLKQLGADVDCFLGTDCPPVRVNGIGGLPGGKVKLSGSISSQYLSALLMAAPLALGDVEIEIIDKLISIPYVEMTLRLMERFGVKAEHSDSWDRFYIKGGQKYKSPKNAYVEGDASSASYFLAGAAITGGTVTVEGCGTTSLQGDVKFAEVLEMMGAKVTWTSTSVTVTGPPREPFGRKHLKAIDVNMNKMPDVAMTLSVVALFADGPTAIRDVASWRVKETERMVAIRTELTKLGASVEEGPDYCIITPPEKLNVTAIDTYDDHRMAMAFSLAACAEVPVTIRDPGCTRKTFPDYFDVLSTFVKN
Sequence of Zea mays EPSPS variant 208V 313G (O24566 1-444 I207V/E312G): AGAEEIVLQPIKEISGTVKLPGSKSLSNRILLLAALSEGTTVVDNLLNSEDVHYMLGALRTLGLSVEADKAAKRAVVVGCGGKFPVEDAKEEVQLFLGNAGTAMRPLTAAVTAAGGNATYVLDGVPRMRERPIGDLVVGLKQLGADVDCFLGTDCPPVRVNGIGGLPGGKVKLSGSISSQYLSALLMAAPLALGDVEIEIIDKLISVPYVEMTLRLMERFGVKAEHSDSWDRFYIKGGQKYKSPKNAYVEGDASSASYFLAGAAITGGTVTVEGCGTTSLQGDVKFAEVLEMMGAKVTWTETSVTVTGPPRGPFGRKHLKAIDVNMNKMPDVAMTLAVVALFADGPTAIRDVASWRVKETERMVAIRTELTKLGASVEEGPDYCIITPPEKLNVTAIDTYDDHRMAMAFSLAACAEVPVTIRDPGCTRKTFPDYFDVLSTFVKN

For C=C(OP(=O)(O)O)C(=O)O [PEP, phosphoenolpyruvate], which “kcat relative to native kcat” value [1] is on record?
The value was ~5%.

With O=C(O)CNCP(=O)(O)O [glyphosate, N-phosphonomethylglycine] as the compound, how does the Ki [2] read?
The Ki was 488 µM.

What about the “(kcat/KM)*KI” value ([2]; substrate saturation, H6-H54E) of the same compound?
Its value is 4340.

And the Ki [3]?
Its Ki is 3.81 µM.

What about the “(kcat/KM)*KI” value [3, 7] of the same compound?
The value was 346.

And the activity at 10 µM [4]?
Its activity at 10 µM is 3.21%.

What about the Ki [5] of the same compound?
The Ki was 629 µM.

And the “(kcat/KM)*KI” value [5, 7]?
Its value is 10070.

What about the hairy root formation ([6]; EPSPS driven by weaker promoters (UBQ3 and native), with glyphosate) of the same compound?
The hairy root formation was “Hairy roots were not formed”.

And the hairy root formation ([6]; UBQ10 promoter and H6, C1 and C2 variants, 25 uM glyphosate)?
The hairy root formation was “generated hairy roots”.

What about the root growth ([6]; native EPSPS (UBQ10 promoter), 25 uM glyphosate) of the same compound?
Its root growth is “no root growth”.
